Measurements reported in paper PMC4258814, “Differences between murine arylamine N-acetyltransferase type 1 and human arylamine N-acetyltransferase type 2 defined by substrate specificity and inhibitor binding” (BMC Pharmacology & Toxicology, 2014).
Substitutions are numbered along the chain they refer to.

How the values were obtained:
(HUMAN)NAT1*4 = system: (HUMAN)NAT1*4; set-up: method as in PMID 15627487, PMID 18280460; conditions: substrate 500 μM, relative to substrate with highest specific activity (100%), mean of 3 ± SD, ref [8], [22]; cited from earlier work
(MOUSE)NAT2*1 = biological target: T1, (MOUSE)NAT2*1 (Mus musculus, UniProt P50295); assay: Substrate specific N-acetylation profile; assay type: biochemical; conditions: for % specific activity values: substrate 500 μM, relative to substrate with highest specific activity (100%), mean of 3 ± SD
T1 construct: made in house
T1 sequence (P50295 1-290): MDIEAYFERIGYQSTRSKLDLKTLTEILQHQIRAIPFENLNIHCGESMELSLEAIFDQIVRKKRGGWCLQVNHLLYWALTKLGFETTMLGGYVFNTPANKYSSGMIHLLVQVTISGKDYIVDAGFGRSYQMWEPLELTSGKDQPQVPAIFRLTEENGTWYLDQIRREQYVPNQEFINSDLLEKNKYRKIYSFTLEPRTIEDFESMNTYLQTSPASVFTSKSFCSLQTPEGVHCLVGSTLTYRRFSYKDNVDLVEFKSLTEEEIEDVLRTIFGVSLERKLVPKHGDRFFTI

(MOUSE)NAT1*1 = biological target: T2, (MOUSE)NAT1*1 (Mus musculus, UniProt P50294); assay: Substrate specific N-acetylation profile; assay type: biochemical; conditions: substrate 500 μM, relative to substrate with highest specific activity (100%), mean of 3 ± SD
T2 construct: The open reading frame of (MOUSE)Nat1*1 [32] was subcloned; hexa-His (N, cleaved yes); made in house; host or cells: Escherichia coli BL21(DE3)CodonPlus-RIL
T2 sequence (P50294 1-290): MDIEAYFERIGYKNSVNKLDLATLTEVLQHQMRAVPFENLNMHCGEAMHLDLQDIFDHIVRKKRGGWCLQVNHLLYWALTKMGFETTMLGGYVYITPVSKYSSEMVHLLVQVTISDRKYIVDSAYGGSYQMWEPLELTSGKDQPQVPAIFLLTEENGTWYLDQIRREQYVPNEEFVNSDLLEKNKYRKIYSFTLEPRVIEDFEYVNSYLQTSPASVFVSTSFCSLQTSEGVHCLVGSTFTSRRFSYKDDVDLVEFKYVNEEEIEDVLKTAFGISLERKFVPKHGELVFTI

(HUMAN)NAT2*4 = biological target: T3, (HUMAN)NAT2*4 (Homo sapiens, UniProt P11245); set-up: method as in PMID 15627487, PMID 18280460; conditions: substrate 500 μM, relative to substrate with highest specific activity (100%), mean of 3 ± SD, ref [8], [22]; cited from earlier work
T3 construct: made in house
T3 sequence (P11245 1-290): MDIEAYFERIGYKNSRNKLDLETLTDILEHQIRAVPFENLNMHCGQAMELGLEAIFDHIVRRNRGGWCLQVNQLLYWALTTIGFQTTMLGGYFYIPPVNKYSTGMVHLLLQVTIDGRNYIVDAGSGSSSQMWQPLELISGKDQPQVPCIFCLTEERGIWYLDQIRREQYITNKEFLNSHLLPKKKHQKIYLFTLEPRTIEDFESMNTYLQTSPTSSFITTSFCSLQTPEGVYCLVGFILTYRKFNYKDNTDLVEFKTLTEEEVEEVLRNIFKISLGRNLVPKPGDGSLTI

(MOUSE)NAT2_R127L = biological target: T4, (MOUSE)NAT2_R127L (Mus musculus, UniProt P50295, R127L); assay: Substrate specific N-acetylation profile; assay type: biochemical; conditions: for % specific activity values: (MOUSE)NAT2 R127L, substrate 500 μM, relative to substrate with highest specific activity (100%), mean of 3 ± SD
T4 construct: made in house
T4 sequence (P50295 1-290 R127L): T1 sequence (P50295 1-290) with R127L

[1] = ref [56]–[61], cited from earlier work; for pKaH of acetyl acceptor amine: as summarised in text from Table S1
(MOUSE)NAT2_R127G = biological target: T5, (MOUSE)NAT2_R127G (Mus musculus, UniProt P50295, R127G); assay: Substrate specific N-acetylation profile; assay type: biochemical; conditions: (MOUSE)NAT2 R127G; substrate 500 μM; relative to substrate with highest specific activity (100%); mean of 3 ± SD
T5 construct: made in house
T5 sequence (P50295 1-290 R127G): T1 sequence (P50295 1-290) with R127G

(MOUSE)NAT2_F125S = biological target: T6, (MOUSE)NAT2_F125S (Mus musculus, UniProt P50295, F125S); assay: Substrate specific N-acetylation profile; assay type: biochemical; conditions: (MOUSE)NAT2 F125S; substrate 500 μM; relative to substrate with highest specific activity (100%); mean of 3 ± SD
T6 construct: His tag (only implied by Ni-NTA purification) (cleaved yes); made in house; host or cells: E. coli Rosetta(DE3)pLysS
T6 sequence (P50295 1-290 F125S): T1 sequence (P50295 1-290) with F125S

(MESAU)NAT2*1 = system: (MESAU)NAT2*1; set-up: method as in PMID 15627487, PMID 18280460; conditions: substrate 500 μM, relative to substrate with highest specific activity (100%), mean of 3 ± SD, ref [8], [22]; cited from earlier work

SMILES: Nc1ccc(C(=O)O)cc1 [4ABA, 4-aminobenzoic acid]
- % specific activity values ((HUMAN)NAT1*4): 100 ± 2%
- Maximal specific activity ((MOUSE)NAT2*1; best substrate, 500 μM): 196 µM/s/mg
- % specific activity values ((MOUSE)NAT2*1): 100 ± 2%
- % specific activity values ((MOUSE)NAT1*1): 48 ± 6%
- % specific activity values ((HUMAN)NAT2*4): 6 ± 1%
- % specific activity values ((MOUSE)NAT2_R127L): 8 ± 1%
- pKaH of acetyl acceptor amine [1]: < 3
- pKa(H) (COOH) [1]: 4.9
- pKa(H) (NH3^+) [1]: 2.4
- % specific activity values ((MOUSE)NAT2_R127G): 8 ± 1%
- % specific activity values ((MOUSE)NAT2_F125S): 70 ± 2%
- % specific activity values ((MESAU)NAT2*1): 100 ± 6%

SMILES: Nc1ccc(C(=O)N[C@@H](CCC(=O)O)C(=O)O)cc1 [4ABglu, 4-aminobenzoyl glutamate]
- % specific activity values ((HUMAN)NAT1*4): 20 ± 1%
- % specific activity values ((MOUSE)NAT2*1): 87 ± 1%
- % specific activity values ((MOUSE)NAT1*1): 8 ± 7%
- % specific activity values ((HUMAN)NAT2*4): 3 ± 1%
- % specific activity values ((MOUSE)NAT2_R127L): 8 ± 1%
- pKaH of acetyl acceptor amine [1]: < 3
- pKa(H) (NH3^+) [1]: 2.7
- pKa(H) (α-COOH) [1]: 3.6
- pKa(H) (γ-COOH) [1]: 4.7
- % specific activity values ((MOUSE)NAT2_R127G): 9 ± 1%
- % specific activity values ((MOUSE)NAT2_F125S): 19 ± 1%
- % specific activity values ((MESAU)NAT2*1): 57 ± 3%

SMILES: Nc1ccc(C(=O)O)c(O)c1 [4AS, 4-aminosalicylate]
- % specific activity values ((HUMAN)NAT1*4): 67 ± 2%
- % specific activity values ((MOUSE)NAT2*1): 55 ± 1%
- % specific activity values ((MOUSE)NAT1*1): 88 ± 6%
- % specific activity values ((HUMAN)NAT2*4): 7 ± 1%
- % specific activity values ((MOUSE)NAT2_R127L): 13 ± 1%
- pKaH of acetyl acceptor amine [1]: < 3
- pKa(H) (COOH) [1]: 6.0
- pKa(H) (NH3^+) [1]: 2.3
- pKa(H) (OH) [1]: 13.2
- % specific activity values ((MOUSE)NAT2_R127G): 27 ± 1%
- % specific activity values ((MOUSE)NAT2_F125S): 75 ± 3%
- % specific activity values ((MESAU)NAT2*1): 74 ± 3%

SMILES: COc1ccc(N)cc1OC [4AV, 4-aminoveratrole]
- % specific activity values ((HUMAN)NAT1*4): 25 ± 2%
- % specific activity values ((MOUSE)NAT2*1): 90 ± 1%
- % specific activity values ((MOUSE)NAT1*1): 28 ± 6%
- % specific activity values ((HUMAN)NAT2*4): 57 ± 3%
- % specific activity values ((MOUSE)NAT2_R127L): 100 ± 10%
- Maximal specific activity ((MOUSE)NAT2_R127L; (MOUSE)NAT2_R127L, best substrate, 500 μM): 82.5 µM/s/mg
- pKa(H) (NH3^+) [1]: 4.7 (NH3^+)
- % specific activity values ((MOUSE)NAT2_R127G): 66 ± 3%
- % specific activity values ((MOUSE)NAT2_F125S): 90 ± 1%
- % specific activity values ((MESAU)NAT2*1): 32 ± 1%

SMILES: Nc1ccc(O)c(C(=O)O)c1 [5AS, 5-aminosalicylate]
- % specific activity values ((HUMAN)NAT1*4): 64 ± 3%
- % specific activity values ((MOUSE)NAT2*1): 37 ± 1%
- % specific activity values ((MOUSE)NAT1*1): 76 ± 6%
- % specific activity values ((HUMAN)NAT2*4): 64 ± 2%
- % specific activity values ((MOUSE)NAT2_R127L): 65 ± 9%
- % specific activity values ((MOUSE)NAT2_R127G): 94 ± 1%
- % specific activity values ((MOUSE)NAT2_F125S): 74 ± 1%
- % specific activity values ((MESAU)NAT2*1): 30 ± 1%

SMILES: NNc1nncc2ccccc12 [HDZ, hydralazine]
- % specific activity values ((HUMAN)NAT1*4): 2 ± 1%
- % specific activity values ((MOUSE)NAT2*1): 8 ± 2%
- % specific activity values ((MOUSE)NAT1*1): 68 ± 6%
- % specific activity values ((HUMAN)NAT2*4): 100 ± 1%
- % specific activity values ((MOUSE)NAT2_R127L): 95 ± 1%
- % specific activity values ((MOUSE)NAT2_R127G): 100 ± 2%
- % specific activity values ((MOUSE)NAT2_F125S): 19 ± 1%
- % specific activity values ((MESAU)NAT2*1): 3 ± 1%
